Data reported in patent US20240207454A1, “NEURO-BEHAVIORAL ASSAY FOR PHYSIOLOGICAL EVALUATION OF WATER-SOLUBLE ANESTHETICS” (Northeastern University, priority 2022, published 2024).
Where two headings read alike, the source gives them in different places.

How the values were obtained:
[1] = test system: Apteronotus leptorhynchus; experiment: Neuro-behavioral assay: effect on EOD frequency; format: in vivo; settings: 1 μM to 60 μM, exposure times of up to 48 hours; negative control
[2] = test system: Apteronotus leptorhynchus; experiment: Neuro-behavioral assay: chirps (EOD modulations); format: in vivo; settings: 1 μM to 60 μM, exposure times of up to 48 hours; negative control
[3] = test system: Apteronotus leptorhynchus; experiment: Neuro-behavioral assay: locomotor activity and induction of anesthesia; format: in vivo; settings: 1 μM to 60 μM, exposure times of up to 48 hours; negative control
Mauthner cell = settings: cited from earlier work

Q: Which results are given for `NC12CC3CC(CC(C3)C1)C2` [Amantadine]?
A: Effect on EOD frequency [1]: no effects; Effect on EOD modulations [2]: no effects; Effect on locomotor activity [3]: no effects

Q: Which “Effect on generation and propagation of action potentials” value (“Effect on generation and propagation” below) (Mauthner cell; 10 mg/L and 20 mg/L, exposure for more than 1 hour) does the source give for `CC=Cc1ccc(O)c(OC)c1` [isoeugenol] here?
A: No effect

Q: And the “Effect on generation and propagation” value (Mauthner cell; 40 mg/L, after 10-30 min)?
A: slight decrease in the slope of action potentials

Q: And the “Effect on generation and propagation” value (Mauthner cell; 60 mg/L, exposure for at least 10-30 min)?
A: additional aspects of the action potential were affected
